Source: paper PMC12566046, “Arylpiperazinyl-Benzocycloheptapyrrole-Carboxamides Endowed with Dual Anticancer and Antiviral Activities” (Molecules, 2025)

Tests used:
[1] = tested on: CAKI-1 (renal cancer cell line); experiment: NCI-60 five-dose assay; assay type: cell-based; conditions: Homo sapiens, five-dose screen
[2] = tested on: NCI-H460 (non-small cell lung cancer); experiment: NCI-60 five-dose assay; assay type: cell-based; conditions: Homo sapiens, five-dose screen
MDCK cells [3] = conditions: dog
in vitro = conditions: human
Experimental: (§2) The toxicity of the compounds at the same concentration was tested on the same cells in parallel.
(§3) Cytotoxic effects were evaluated on uninfected cells using the WST-8 assay (Orangu, Cell Guidance Systems, Cambridge, UK) and the crystal violet assay [23]. […] Huh-7, MDCK, and Vero TMPRSS cells were seeded at 1 × 10^4, 1.5 × 10^4, and 1.2 × 10^4 cells/well, respectively, and incubated for 48 h (Huh-7 and MDCK) or 24 h (VERO TMPRSS), following conditions matching those of the corresponding antiviral assays in terms of timing and culture medium. At the end of incubation, the medium was replaced with a 10% WST-8 solution in DMEM and incubated for 1 h at 37 °C. Optical density (OD) was then measured at 450 nm using a Varioskan LUX plate reader (ThermoFisher Scientific, Milano, Italy). Subsequently, cells were fixed with 4% buffered formalin solution (Merck®, Darmstadt, Germany), stained with 1% crystal violet (Merck®, Darmstadt, Germany), and the dye was solubilized in 30% acetic acid for 30 min under shaking. OD was then measured at 595 nm as an additional readout of cell viability. The percentage of viability at each concentration was calculated using the formula:% viability = 100 × (ODcompound/ODuntreated control) where ODcompound and ODuntreated are the OD of the cells treated with compound or DMSO, respectively.
(§4) The CC50 value was determined by nonlinear regression analysis on GraphPad Prism 7 (San Diego, CA, USA).

[4] = tested on: OVCAR-4 (ovarian cancer cell line); experiment: NCI-60 single-dose assay; assay type: cell-based, human
Procedure, shortened: (§1)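 Single-dose cytotoxicity test run in the NCI-60 panel of human cancer cell lines. Threshold inhibition criteria across a minimum number of lines decided progression to five-dose testing.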

[5] = tested on: PC-3 (prostate cancer cell line); experiment: NCI-60 single-dose assay; assay type: cell-based, human
Procedure, shortened: as §1

MDCK cells [6] = experiment: Cytotoxicity on uninfected MDCK cells (WST-8, crystal violet); conditions: read-out: IAV/MDCK CC50; preliminary screening (50, 5, 0.5 μM), MDCK
Huh-7 cells = experiment: Cytotoxicity on uninfected Huh-7 cells (WST-8, crystal violet); conditions: read-out: ZIKV/Huh‐7 CC50; preliminary screening (50, 5, 0.5 μM), Huh-7
Experimental: as §2, §3, §4

Vero TMPRSS cells = conditions: read-out: SARS‐CoV‐2/Vero TMPRSS CC50; preliminary screening (50, 5, 0.5 μM), Vero TMPRSS

`CCN1CCC[C@H]1CNC(=O)c1[nH]c2c(c1Cl)CCCc1ccccc1-2` [Compound 1, (S)-3-Chloro-N-(1-ethyl-2-pyrrolidinylmethyl)-5,6-dihydro-4H-benzo[6,7]cyclohepta[1,2-b]pyrrol-2-carboxamide] gave a GI50 [1] of 2.29 µM and a GI50 [2] of 2.03 µM.

With `O=C(NCCN1CCN(c2ccc(Cl)cc2)CC1)c1c(Cl)[nH]c2c1CCCc1ccccc1-2` [Compound 13] the “IAV/MDCK CC50” value (MDCK cells [3]) was 225.00 µM and the CC50 (in vitro) was 62.2 µM.

In the case of `COc1ccccc1N1CCN(CCNC(=O)c2c(Cl)[nH]c3c2CCCc2ccccc2-3)CC1` [Compound 15], the “growth inhibition (GI%)” value [4] was 66.06% and the “growth inhibition (GI%)” value [5] was 75.11%.

Compound “N-(3-(4-Benzylpiperazin-1-yl)propyl)-2-chloro-1,4,5,6-tetrahydrobenzo[6,7]cyclohepta[1,2-b]pyrrole-2-carboxamide [Compound 11]” has a CC50 (MDCK cells [6]) of 5.38 µM, a CC50 (Huh-7 cells) of 4.89 µM and a CC50 (Vero TMPRSS cells) of 15.4 µM.
